The structures appear in SMILES notation. Structures can show the parent of a compound that is named as a salt.

The test system of assay [1] is SB.msgc-1. Nature of the assay: viability at highest tested concentration (MAXR) relative to DMSO; higher = less cytotoxic. Particulars: SB.msgc-1 (sporadic gastric cancer). In short, it runs like this:
(§1)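 Gastric cancer cells derived from hereditary or sporadic patients were treated for 48 h with compound at 11 threefold dilutions, with the top concentration recorded per compound. Viability was then read by CellTiter-Glo luminescence. Data are viability normalised to DMSO, at the highest concentration or as trapezoidal area under the curve.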

The subject of assay [2] is SB.mhdgc-1. The assay is described as above. Particulars: SB.mhdgc-1 (hereditary c.1380delA CDH1 gastric cancer). The procedure, abridged: as §1
Assay [3] deals with SB.msgc-1. Kind of assay: area under the dose-response curve of % viability (trapezoidal, 11 doses) (% viability x log10 concentration); higher = less cytotoxic. The note with it: SB.msgc-1 (sporadic gastric cancer). The procedure, abridged:
as §1

Assay [4] concerns SB.mhdgc-1. The description is as above. Particulars: SB.mhdgc-1 (hereditary c.1380delA CDH1 gastric cancer). The procedure, abridged: as §1

`CCN(C(=O)C/1=C(O)/C2=C(C=CC=C2Cl)N(C)C1=O)C3=CC=CC=C3` [Laquinimod] (top concentration 46.0829 µM): the values for the viability in the assay with SB.msgc-1 [1] and in the assay with SB.mhdgc-1 [2] were 96.7% and 112%, respectively. In addition, the entries for the “area under the dose-response curve” value in the assay on SB.msgc-1 [3] and with SB.mhdgc-1 [4] were 489 and 559, respectively.

With `C[S+](=O)([O-])c1cc(F)cc2c3c(n(Cc4ccc(Cl)cc4)c12)[C@@H](CC(=O)O)CC3` [Laropiprant] (top concentration 46.0829 µM), the viability (in general, a read-out of living cells in per cent, often relative to untreated cells) in the assay with SB.msgc-1 [1] was 91.4%; with SB.mhdgc-1 [2], 93.2%. In addition, the figures for the “area under the dose-response curve” value in the assay with SB.msgc-1 [3] and with SB.mhdgc-1 [4] were 553 and 555, respectively.

Turning to `Cc1ccc2c(c1)c1c(n2CCc2ccc(C)nc2)CCN(C)C1` [Latrepirdine hydrochloride] (top concentration 46.0829 µM), the viability in the assay on SB.msgc-1 [1] was 79.8%; with SB.mhdgc-1 [2], 57.1%. The “area under the dose-response curve” value turned out to be 487 in the assay on SB.msgc-1 [3] and 454 in the assay with SB.mhdgc-1 [4].

Regarding `Cc1oncc1C(=O)Nc1ccc(C(F)(F)F)cc1` [Leflunomide] (top concentration 46.0829 µM), the viability was found to be 79.3% in the assay on SB.msgc-1 [1] and 87.4% in the assay with SB.mhdgc-1 [2]. For the same compound, the figures for the “area under the dose-response curve” value in the assay with SB.msgc-1 [3] and in the assay with SB.mhdgc-1 [4] were 485 and 495, respectively.

As to `Nc1cccc2c1CN(C1CCC(=O)NC1=O)C2=O` (stereo not drawn) [Lenalidomide] (top concentration 92.1659 µM), the viability in the assay with SB.msgc-1 [1] was 112%; in the assay on SB.mhdgc-1 [2], 120%. Further, the “area under the dose-response curve” value turned out to be 481 in the assay with SB.msgc-1 [3] and 478 in the assay with SB.mhdgc-1 [4].

With `COc1cc2nccc(Oc3ccc(NC(=O)NC4CC4)c(Cl)c3)c2cc1C(N)=O` [Lenvatinib] (top concentration 46.0829 µM), the viability with SB.msgc-1 [1] was found to be 48.1%; in the assay on SB.mhdgc-1 [2] it was 3.75%. For the same compound, the figures for the “area under the dose-response curve” value in the assay with SB.msgc-1 [3] and in the assay on SB.mhdgc-1 [4] were 474 and 399, respectively.

For the compound `C[C@@]12O[C@@H](C[C@]1(O)CO)n1c3ccccc3c3c4c(c5c6ccccc6n2c5c31)CNC4=O` [Lestaurtinib] (top concentration 46.0829 µM), the viability in the assay on SB.msgc-1 [1] was found to be 31.1%; in the assay with SB.mhdgc-1 [2] it was 37.8%. Besides, the figures for the “area under the dose-response curve” value in the assay on SB.msgc-1 [3] and in the assay on SB.mhdgc-1 [4] were 428 and 388, respectively.

Regarding `N#Cc1ccc(C(c2ccc(C#N)cc2)n2cncn2)cc1` [Letrozole] (top concentration 46.0829 µM), the viability was 93% in the assay on SB.msgc-1 [1] and 88.3% with SB.mhdgc-1 [2]. Moreover, the “area under the dose-response curve” value was determined as 532 with SB.msgc-1 [3] and 501 with SB.mhdgc-1 [4].

On to `CC[C@@H](C(N)=O)N1CCCC1=O` [Levetiracetam] (top concentration 46.0829 µM), for which the viability with SB.msgc-1 [1] was determined as 91.5%; in the assay on SB.mhdgc-1 [2], 83.4%. Besides, the “area under the dose-response curve” value stood at 584 in the assay with SB.msgc-1 [3] and 545 with SB.mhdgc-1 [4].

In the case of `N[C@@H](Cc1ccc(O)c(O)c1)C(=O)O` [Levodopa] (top concentration 46.0829 µM), the viability with SB.msgc-1 [1] was found to be 116%; in the assay on SB.mhdgc-1 [2], 118%. Further, the “area under the dose-response curve” value came to 571 with SB.msgc-1 [3] and 583 in the assay with SB.mhdgc-1 [4].

For the compound `C[C@H]1COC2=C3N1\C=C(C(O)=O)/C(=O)C3=CC(=C2N4CCN(C)CC4)F` [Levofloxacin] (top concentration 46.0829 µM), the viability was found to be 105% in the assay on SB.msgc-1 [1] and 129% in the assay on SB.mhdgc-1 [2]. In addition, the entries for the “area under the dose-response curve” value in the assay with SB.msgc-1 [3] and in the assay on SB.mhdgc-1 [4] were 530 and 528, respectively.

For the compound `CC[C@]12CC[C@H]3[C@@H](CCC/4=C/C(=O)CC[C@H]34)[C@@H]1CC[C@@]2(O)C#C` [Levonorgestrel] (top concentration 46.0829 µM), the viability was 77.2% with SB.msgc-1 [1] and 98.5% with SB.mhdgc-1 [2]. For the same compound, the “area under the dose-response curve” value in the assay on SB.msgc-1 [3] was 512; with SB.mhdgc-1 [4], 472.

For `C[C@@H]\1CC(=O)N\N=C1C2=CC=C(NN=C(C#N)C#N)C=C2` [Levosimendan] (top concentration 46.0829 µM), the viability with SB.msgc-1 [1] amounted to 1.23%; with SB.mhdgc-1 [2] it was 3%. The “area under the dose-response curve” value with SB.msgc-1 [3] turned out to be 294; in the assay on SB.mhdgc-1 [4], 476.

For `CCN1CCCC1CNC(=O)c1cc([S+](N)(=O)[O-])ccc1OC` (stereo not drawn) [Levosulpiride] (top concentration 46.0829 µM), the viability with SB.msgc-1 [1] is 116%; with SB.mhdgc-1 [2], 140%. Also, the “area under the dose-response curve” value in the assay with SB.msgc-1 [3] was determined as 538; with SB.mhdgc-1 [4] it was 581.

Turning to `CCC[C@H](Nc1nc(-c2ccc(NC(=O)NCC)c(OC)c2)ncc1C)c1cccnc1` [Lexibulin hydrochloride] (top concentration 46.0829 µM), the viability was found to be 33.9% with SB.msgc-1 [1] and 39.8% in the assay on SB.mhdgc-1 [2]. Besides, the “area under the dose-response curve” value was determined as 289 with SB.msgc-1 [3] and 257 in the assay on SB.mhdgc-1 [4].

As for `CC1(C)Cc2c(-c3ccccc3)c(-c3ccc(Cl)cc3)c(CC(=O)O)n2C1` [Licofelone] (top concentration 46.0829 µM), the viability was 62.5% with SB.msgc-1 [1] and 91.4% in the assay with SB.mhdgc-1 [2]. For the same compound, the “area under the dose-response curve” value with SB.msgc-1 [3] turned out to be 496; in the assay on SB.mhdgc-1 [4] it was 533.

Turning to `OCc1ccc(-c2nn(Cc3ccccc3)c3ccccc23)o1` [Lificiguat] (top concentration 46.0829 µM), the viability in the assay on SB.msgc-1 [1] came to 84%; with SB.mhdgc-1 [2] it was 80.3%. For the same compound, the “area under the dose-response curve” value in the assay with SB.msgc-1 [3] is 548; with SB.mhdgc-1 [4], 516.

These data come from the supplement of paper PMC5412046.
